{
  "source": "paper PMC5516987",
  "about": "“Safety and pharmacodynamics of dalazatide, a Kv1.3 channel inhibitor, in the treatment of plaque psoriasis: A randomized phase 1b trial” (PLoS ONE, 2017)",
  "origin": "cited, not measured here",
  "key": {"[1]": {"conditions": "4-AP and related compounds", "description": "One potassium channel blocking drug that has been tested in humans is the nonselective potassium channel inhibitor, 4-aminopyridine (4-AP, fampridine, dalfampridine). Various formulations of 4-AP have been evaluated for their potential to increase nerve conduction and improve function in spinal cord injury, autoimmune diseases involving the nervous system, and diseases of nerve conduction. The most commonly reported adverse events are paresthesia (perioral and digital), nausea, dizziness, headache, and insomnia. Although infrequent, the most serious toxicity reported in patients treated ..."}, "[2]": {"system": "viral and bacterial infections", "conditions": "chronically treated animals, versus vehicle", "description": "Dalazatide (previously referred to as ShK-186 and SL5) is a 37-amino acid synthetic peptide that is a specific inhibitor of the voltage-gated Kv1.3 potassium channel. It is a derivative of ShK, which was originally isolated from the venom of the sea anemone Stichodactyla helianthus. Human T cells rely on two potassium channels, Kv1.3 and KCa3.1 to maintain the calcium signaling required for their activation and differentiation, by maintaining a balance between calcium influx and potassium efflux. Chronically activated memory T cells that rely on upregulation of Kv1.3 expression for ..."}},
  "data": [
    {"smiles": "Nc1ccncc1", "note": "[4-AP, 4-aminopyridine]", "values": [
      {"measurement": "Crossing of the blood-brain barrier", "setting": "[1]", "value": "readily cross the blood-brain barrier"}
    ]},
    {"smiles": "C[C@@H]1C[C@H]2[C@@H]3CCC4=CC(=O)C=C[C@]4(C)[C@@]3(F)[C@@H](O)C[C@]2(C)[C@@]1(O)C(=O)CO", "note": "[dexamethasone]", "values": [
      {"measurement": "Clearance of viral and bacterial infections", "setting": "[2]", "value": "significantly delayed clearance rate"}
    ]}
  ]
}
